Data taken from paper PMC12109337, “Engineered Fluorescent Variants of Lactadherin C2 Domain for Phosphatidylserine Detection in Flow Cytometry” (Biomolecules, 2025).

Experiments:
[1] = target: T1, axV-mNG (Homo sapiens, UniProt P08758); test: equilibrium binding to liposomes, flow cytometry; details: 20:80 PS/PC liposomes, not free lipid; Kd is the protein concentration at half occupation; Hill coefficient ~1.2; HBS pH 7.4 with 2.5 mM CaCl2; 1 h; read-out: Kd (apparent, Hill)
T1 construct: gene ANXA5; N-terminal 6xHis, annexin V with C-terminal mNeonGreen fusion (also printed mNG-axV), tags kept, pET-28a(+), E. coli Rosetta-Gami 2(DE3)pLysS, Ni-NTA
T1 sequence (P08758 2-320): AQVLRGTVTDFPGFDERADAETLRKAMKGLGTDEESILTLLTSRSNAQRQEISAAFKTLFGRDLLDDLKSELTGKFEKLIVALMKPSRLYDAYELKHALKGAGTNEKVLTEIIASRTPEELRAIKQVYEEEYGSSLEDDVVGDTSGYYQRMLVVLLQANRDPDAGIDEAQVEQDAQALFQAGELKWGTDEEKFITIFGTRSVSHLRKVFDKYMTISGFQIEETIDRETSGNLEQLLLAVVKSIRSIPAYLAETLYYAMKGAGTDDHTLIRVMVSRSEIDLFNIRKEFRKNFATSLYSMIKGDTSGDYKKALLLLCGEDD

[2] = target: T2, mNG-lactC2 (Bos taurus, UniProt Q95114); test: equilibrium binding to liposomes, flow cytometry; details: 20:80 PS/PC liposomes, not free lipid; Kd is the protein concentration at half occupation; Hill coefficient ~1.2; HBS pH 7.4, no calcium; 1 h; read-out: Kd (apparent, Hill)
T2 construct: gene MFGE8; C2 domain (residues 270-427), N-terminal 6xHis and mNeonGreen fusion kept, pET-28a(+), E. coli Rosetta-Gami 2(DE3)pLysS, Ni-NTA
T2 sequence (Q95114 270-427): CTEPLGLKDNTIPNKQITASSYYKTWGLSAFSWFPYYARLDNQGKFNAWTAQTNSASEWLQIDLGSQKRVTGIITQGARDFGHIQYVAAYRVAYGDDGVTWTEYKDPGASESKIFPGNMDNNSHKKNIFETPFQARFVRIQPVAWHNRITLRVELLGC

Which Kd [1] does the source give for “1,2-diacyl-sn-glycero-3-phospho-L-serine [phosphatidylserine]” here?
The Kd was 10 nM.

And the Kd [2]?
The Kd was 107 nM.
